Assay results reported in patent US7479507B2, “Anti-inflammatory substituted phenols and elastomeric compositions for oral delivery of drugs” (priority 2003, dated 2009).

What was measured:
[1] = test system: dogs diagnosed with arthritis or chronic or degenerative joint disease; test: Owner-reported mobility of dogs with arthritis or chronic or degenerative joint disease, daily oral dosing, placebo-controlled; type: in vivo, dog
Experimental: The experiments below were performed on dogs after the informed consent of their owners was obtained. […] The specified compound was administered orally once a day with the dog's meal. […] The owners reported weekly any change in the ability of their dog to stand up, walk, run, climb and descend stairs, get on and off a bed, sofa, or chair, get into and out of a car, their limping and behavior.

[2] = test system: rat; details: cited from earlier work
[3] = test system: rats; details: >2.35 mg/l air aerosol, mostly (~80%) particles smaller than 7 μm; cited from earlier work
[4] = test system: rat; details: cited from earlier work; remark: listed apart in the source
[5] = test system: Chinese hamster; details: cited from earlier work
[6] = test system: carp; details: 0.3-3 ppm; cited from earlier work

CC(C(=O)O)c1ccc2c(c1)[nH]c1ccc(Cl)cc12 (stereo not shown) [Rimadyl®, reference compound]
change in dog's condition ([1]; Example 9, 85 lb Labrador retriever, arthritis of the hips, Rimadyl alone before Compound 1): slightly improved the dog's condition

calcium salt of the monoethyl ester of (((3,5-bis(1,1-dimethylethyl)-4-hydroxyphenyl)methyl) phosphonic acid [Compound 1]
change in dog's condition ([1]; Example 7, 33 lb Kelpie-mix, about 10 mg daily oral capsule, 4th week): condition continued to improve | change in dog's condition ([1]; Example 7, 33 lb Kelpie-mix, about 10 mg daily oral capsule, after 2 weeks): moved smoothly, had less difficulty getting out of the car or off the sofa, ran better and more often, and was more active | change in dog's condition ([1]; Example 7, 33 lb Kelpie-mix, about 10 mg daily oral capsule, after 3 weeks): freely getting off the bed, down from the sofa and out of the car | change in dog's condition ([1]; Example 7, 33 lb Kelpie-mix, arthritis of shoulders and elbow, about 10 mg daily oral capsule, after 1 week): got down the sofa and out of the car more easily | change in dog's condition ([1]; Example 8, 13 lb miniature Poodle, about 10 mg daily oral capsule, after 3 weeks): ran frequently and jumped up on the sofa without hesitation | change in dog's condition ([1]; Example 8, 13 lb miniature Poodle, about 10 mg daily oral capsule, after 4 weeks): climbing and running freely | change in dog's condition ([1]; Example 8, 13 lb miniature Poodle, unknown disease, about 10 mg daily oral capsule, after two weeks): climbed stairs with less hesitation and ran occasionally | change in dog's condition ([1]; Example 9, 85 lb Labrador retriever, about 15 mg Compound 1 daily capsule and Rimadyl, after 1 week): stood up without assistance and limped less | change in dog's condition ([1]; Example 9, 85 lb Labrador retriever, about 15 mg Compound 1 daily capsule and Rimadyl, after 3 weeks): started to move faster, then to run | change in dog's condition ([1]; Example 9, 85 lb Labrador retriever, about 15 mg Compound 1 daily capsule and Rimadyl, after two weeks): moved faster and was not bothered by its hips | change in dog's condition ([1]; Example 9, 85 lb Labrador retriever, about 15 mg Compound 1 daily capsule, Rimadyl discontinued, 4th week): got up and moved rapidly with ease and it's running improved | change in dog's condition ([1]; Example 11, 62 lb Australian cattle dog, about 10 mg Compound 1 daily capsule, after 2 weeks): stood well, limped less, and climbed the 3 stairs to and from the house | change in dog's condition ([1]; Example 11, 62 lb Australian cattle dog, about 10 mg Compound 1 daily capsule, after 3 weeks): trotted and climbed 5 stairs | change in dog's condition ([1]; Example 11, 62 lb Australian cattle dog, about 10 mg Compound 1 daily capsule, after 4 weeks): condition was further improved | change in dog's condition ([1]; Example 11, 62 lb Australian cattle dog, after 5 months untreated, about 10 mg Compound 1 daily capsule, after one week): stood longer, walked, and enjoyed the outdoors | number of dogs for which improvement was evident ([1]; of 5 dogs given Compound 1): 4 dogs | intraperitoneal LD50 [2]: 662 mg/kg | deaths after 4 hour inhalation [3]: no deaths | oral LD50 [4]: exceeds 6000 mg/kg | oral LD50 [5]: exceeds 2000 mg/kg | bioconcentration (accumulation) [6]: No bioconcentration (accumulation) was detected
